Test results from patent US8871753B2, “Macrocyclic compounds and their use as kinase inhibitors” (Incyte Corporation, priority 2008, dated 2014).
Counter-ions that a name gives are not always drawn. Like-named read-outs stand apart in the source and are kept apart here.

Tests used:
Assay type in all cases: biochemical
[1] = target: T1, human JAK1 (a.a. 837-1142) (Homo sapiens, UniProt P23458); experiment: In vitro JAK kinase assay (HTRF, phosphorylation of a biotinylated peptide), JAK1; conditions: read-out: JAK1 IC50
T1 construct: human JAK1 (a.a. 837-1142); His tag (N); made in house; host or cells: insect cells (baculovirus)
T1 sequence (P23458 849-1154): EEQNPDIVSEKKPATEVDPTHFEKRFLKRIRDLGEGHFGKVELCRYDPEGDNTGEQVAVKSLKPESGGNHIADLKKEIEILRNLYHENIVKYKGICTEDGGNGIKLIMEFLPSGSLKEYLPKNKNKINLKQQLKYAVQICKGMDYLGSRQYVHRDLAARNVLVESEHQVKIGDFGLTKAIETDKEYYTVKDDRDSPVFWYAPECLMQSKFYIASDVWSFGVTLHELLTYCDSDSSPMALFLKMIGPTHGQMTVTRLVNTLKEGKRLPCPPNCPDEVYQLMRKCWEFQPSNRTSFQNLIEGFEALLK
Procedure, shortened: (§1)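 Kinase reactions ran at room temperature for 1 h with ATP matched per isoform (JAK1 90 μM, JAK2 30 μM, JAK3 3 μM). After an EDTA stop, the phosphorylated biotin-peptide was read by HTRF using Eu-Py20 and SA-APC after 40 min binding.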

[2] = target: T2, human JAK3 (a.a. 781-1124) (Homo sapiens, UniProt P52333); experiment: In vitro JAK kinase assay (HTRF, phosphorylation of a biotinylated peptide), JAK3
T2 construct: JAK3 (a.a. 781-1124); His tag (N); made in house; host or cells: insect cells (baculovirus)
T2 sequence (P52333 781-1124): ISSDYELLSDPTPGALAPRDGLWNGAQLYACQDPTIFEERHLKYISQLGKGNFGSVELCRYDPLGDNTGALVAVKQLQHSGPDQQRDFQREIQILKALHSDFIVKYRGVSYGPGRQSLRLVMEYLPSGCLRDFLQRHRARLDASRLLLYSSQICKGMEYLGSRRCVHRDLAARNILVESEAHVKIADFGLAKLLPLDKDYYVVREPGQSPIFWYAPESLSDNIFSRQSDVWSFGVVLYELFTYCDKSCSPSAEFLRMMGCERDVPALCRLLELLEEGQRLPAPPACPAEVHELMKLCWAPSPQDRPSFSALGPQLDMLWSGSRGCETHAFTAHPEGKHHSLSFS
Procedure, shortened: as §1

[3] = target: T3, human JAK2 (a.a. 828-1132) (Homo sapiens, UniProt O60674); experiment: In vitro JAK kinase assay (HTRF, phosphorylation of a biotinylated peptide), JAK2
T3 construct: JAK2 (a.a. 828-1132); His tag (N); made in house; host or cells: insect cells (baculovirus)
T3 sequence (O60674 828-1132): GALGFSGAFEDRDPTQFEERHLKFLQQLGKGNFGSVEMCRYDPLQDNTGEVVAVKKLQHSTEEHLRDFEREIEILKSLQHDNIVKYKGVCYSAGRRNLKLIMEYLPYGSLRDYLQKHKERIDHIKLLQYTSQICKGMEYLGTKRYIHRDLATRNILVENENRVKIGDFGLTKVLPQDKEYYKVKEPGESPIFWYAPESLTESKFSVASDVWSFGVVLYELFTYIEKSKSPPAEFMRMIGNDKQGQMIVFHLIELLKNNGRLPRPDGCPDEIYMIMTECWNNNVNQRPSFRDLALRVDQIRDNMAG
Procedure, shortened: as §1

TYK2 = TYK2 (Homo sapiens, UniProt P29597); experiment: TYK2 kinase inhibition (Table A1)
Sequence of TYK2 (P29597 whole entry): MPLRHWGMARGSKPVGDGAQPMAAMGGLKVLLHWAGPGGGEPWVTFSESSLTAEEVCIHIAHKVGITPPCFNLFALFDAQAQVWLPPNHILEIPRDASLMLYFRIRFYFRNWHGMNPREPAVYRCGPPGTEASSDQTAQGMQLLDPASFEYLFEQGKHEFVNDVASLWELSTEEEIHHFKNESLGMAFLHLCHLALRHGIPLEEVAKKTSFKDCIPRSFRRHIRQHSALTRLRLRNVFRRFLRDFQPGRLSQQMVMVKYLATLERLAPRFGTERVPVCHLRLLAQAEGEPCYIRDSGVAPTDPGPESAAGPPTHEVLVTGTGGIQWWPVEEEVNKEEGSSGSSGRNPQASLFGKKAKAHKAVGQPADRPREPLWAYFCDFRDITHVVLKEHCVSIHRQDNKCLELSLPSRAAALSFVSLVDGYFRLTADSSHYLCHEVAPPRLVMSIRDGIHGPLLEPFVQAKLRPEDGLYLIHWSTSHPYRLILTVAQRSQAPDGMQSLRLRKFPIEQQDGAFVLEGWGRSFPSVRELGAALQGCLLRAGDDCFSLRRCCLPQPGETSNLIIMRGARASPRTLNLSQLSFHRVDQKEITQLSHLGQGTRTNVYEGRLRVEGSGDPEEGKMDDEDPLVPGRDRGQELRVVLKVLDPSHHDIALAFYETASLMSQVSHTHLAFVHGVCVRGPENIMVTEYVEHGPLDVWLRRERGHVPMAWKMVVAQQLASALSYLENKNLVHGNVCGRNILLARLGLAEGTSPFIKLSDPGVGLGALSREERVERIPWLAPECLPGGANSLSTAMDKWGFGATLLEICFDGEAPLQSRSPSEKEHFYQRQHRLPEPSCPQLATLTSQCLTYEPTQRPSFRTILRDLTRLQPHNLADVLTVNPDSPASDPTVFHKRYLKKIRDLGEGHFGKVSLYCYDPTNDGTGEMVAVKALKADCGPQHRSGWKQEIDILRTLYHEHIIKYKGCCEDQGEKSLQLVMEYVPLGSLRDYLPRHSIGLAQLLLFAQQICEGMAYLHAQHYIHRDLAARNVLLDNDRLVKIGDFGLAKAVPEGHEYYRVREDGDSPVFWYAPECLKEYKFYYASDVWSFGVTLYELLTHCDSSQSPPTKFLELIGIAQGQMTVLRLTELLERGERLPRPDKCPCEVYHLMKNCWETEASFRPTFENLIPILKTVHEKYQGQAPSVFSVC

[4] = target: T4, Recombinant Human Anaplastic Lymphoma Kinase (Homo sapiens, UniProt Q9UM73); experiment: ALK HTRF kinase assay; conditions: for IC50: Table B1, cells without percent sign
T4 construct: purchased Invitrogen, Carlsbad, Calif
T4 sequence (Q9UM73 19-1620): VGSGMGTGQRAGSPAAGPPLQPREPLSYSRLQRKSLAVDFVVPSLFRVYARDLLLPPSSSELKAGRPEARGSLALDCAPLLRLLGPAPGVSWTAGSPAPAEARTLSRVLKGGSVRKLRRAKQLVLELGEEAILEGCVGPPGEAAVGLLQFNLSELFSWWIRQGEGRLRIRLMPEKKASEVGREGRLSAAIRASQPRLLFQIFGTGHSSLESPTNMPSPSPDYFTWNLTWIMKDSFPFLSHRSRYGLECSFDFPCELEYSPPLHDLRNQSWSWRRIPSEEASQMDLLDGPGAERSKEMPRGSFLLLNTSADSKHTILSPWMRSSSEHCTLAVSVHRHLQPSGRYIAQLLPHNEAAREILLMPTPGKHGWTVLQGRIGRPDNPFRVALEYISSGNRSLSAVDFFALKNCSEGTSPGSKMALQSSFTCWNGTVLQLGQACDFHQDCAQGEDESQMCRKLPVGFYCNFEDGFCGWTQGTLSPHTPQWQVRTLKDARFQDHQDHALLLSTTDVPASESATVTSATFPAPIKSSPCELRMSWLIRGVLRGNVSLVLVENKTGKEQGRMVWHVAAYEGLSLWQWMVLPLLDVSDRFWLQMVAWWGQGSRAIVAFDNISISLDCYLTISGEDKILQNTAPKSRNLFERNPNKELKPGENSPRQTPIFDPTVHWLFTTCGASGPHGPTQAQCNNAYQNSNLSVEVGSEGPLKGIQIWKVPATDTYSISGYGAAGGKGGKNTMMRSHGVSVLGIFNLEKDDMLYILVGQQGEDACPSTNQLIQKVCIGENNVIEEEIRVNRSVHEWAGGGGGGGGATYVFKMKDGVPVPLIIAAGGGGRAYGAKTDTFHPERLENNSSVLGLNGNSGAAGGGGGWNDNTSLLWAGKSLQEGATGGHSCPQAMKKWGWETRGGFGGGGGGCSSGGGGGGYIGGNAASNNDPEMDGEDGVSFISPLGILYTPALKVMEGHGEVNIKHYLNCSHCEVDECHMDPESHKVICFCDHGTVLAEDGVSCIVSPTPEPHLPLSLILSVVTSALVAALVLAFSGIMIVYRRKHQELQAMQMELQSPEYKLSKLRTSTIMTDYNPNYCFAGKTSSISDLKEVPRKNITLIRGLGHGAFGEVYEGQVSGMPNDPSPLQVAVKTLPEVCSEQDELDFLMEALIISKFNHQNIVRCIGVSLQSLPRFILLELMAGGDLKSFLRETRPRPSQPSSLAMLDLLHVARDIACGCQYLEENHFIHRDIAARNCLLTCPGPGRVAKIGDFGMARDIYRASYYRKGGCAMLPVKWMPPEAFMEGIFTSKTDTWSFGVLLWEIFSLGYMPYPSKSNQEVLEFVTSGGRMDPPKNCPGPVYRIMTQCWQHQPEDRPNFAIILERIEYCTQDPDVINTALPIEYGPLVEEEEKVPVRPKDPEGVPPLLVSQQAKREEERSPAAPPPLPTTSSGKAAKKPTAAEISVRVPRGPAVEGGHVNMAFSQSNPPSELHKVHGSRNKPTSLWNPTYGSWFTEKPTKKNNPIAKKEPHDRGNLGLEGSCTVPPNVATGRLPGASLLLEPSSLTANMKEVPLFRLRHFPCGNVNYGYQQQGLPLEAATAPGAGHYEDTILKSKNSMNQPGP
Procedure, shortened: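 Kinase activity of the recombinant human protein is measured on a biotinylated peptide, with a Eu-W1024 anti-phosphotyrosine antibody and streptavidin-allophycocyanin generating the homogeneous time-resolved fluorescence signal. Inhibition curves are fitted to yield IC50.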

[5] = method AA1 (90 μM ATP) or AA2 (1000 μM ATP), not stated per value
[6] = method AA1 (3 μM ATP) or AA2 (1000 μM ATP), not stated per value
[7] = method AA1 (30 μM ATP) or AA2 (1000 μM ATP), not stated per value
[8] = compound at 500 nM or 1 mM, 90 μM ATP
[9] = compound at a concentration of 500 nM or 1 mM (not specified), cells shown as percentage

O=C(Nc1cccc(Cl)c1)Nc1ccc2cc1CCc1cccc(c1)Nc1ncc(Cl)c(n1)N2 [Example B85, N-(3-Chlorophenyl)-N′-[6-chloro-2,4,8,22-tetraazatetracyclo[14.3.1.1(3,7).1(9,13)]docosa-1(20),3(22),4,6,9(21),10,12,16,18-nonaen-12-yl]urea trifluoroacetate]
IC50 ([1]; Table B1): 1.4 nM
IC50 ([2]; Table B1): 39 nM
IC50 ([3]; Table B1): 2.7 nM
IC50 (TYK2; Table B1): 2.2 nM
IC50 [4]: > 1000 nM

O=S(=O)(Nc1ccc2cc1CCc1cccc(c1)Nc1ncc(Cl)c(n1)N2)c1ccccc1Cl [Example B137, 2-Chloro-N-[6-chloro-2,4,8,22-tetraazatetracyclo[14.3.1.1(3,7).1(9,13)]docosa-1(20),3(22),4,6,9(21),10,12,16,18-nonaen-12-yl]benzenesulfonamide trifluoroacetate]
IC50 ([1]; Table B1): 0.42 nM
IC50 ([2]; Table B1): 6.4 nM
IC50 ([3]; Table B1): 0.11 nM
IC50 (TYK2; Table B1): 0.27 nM
IC50 [4]: 580 nM

O=C(CC1CCN(c2cnccn2)CC1)Nc1ccc2cc1CCc1cncc(c1)Nc1ncc(Cl)c(n1)N2 [Example A171, N-[6-Chloro-2,4,8,18,22-pentaazatetracyclo[14.3.1.1(3,7).1(9,13)]docosa-1(20),3(22),4,6,9(21),10,12,16,18-nonaen-12-yl]-2-(1-pyrazin-2-ylpiperidin-4-yl)acetamide tris(trifluoroacetate)]
IC50 [1, 5]: 12 nM
IC50 [2, 6]: > 1000 nM
IC50 [3, 7]: 118 nM
IC50 (TYK2): 300 nM
ALK % of inhibition at a concentration of 500 nM or 1 mM [4, 8]: 29%

O=C(Nc1cc2cc(c1)Nc1nc(ncc1Cl)Nc1cccc(c1)CC2)NC1CCCC1 [Example B215, N-[6-Chloro-2,4,8,22-tetraazatetracyclo[14.3.1.1(3,7).1(9,13)]docosa-1(20),3(22),4,6,9(21),10,12,16,18-nonaen-11-yl]-N′-cyclopentylurea trifluoroacetate]
IC50 ([1]; Table B1): 91 nM
IC50 ([2]; Table B1): 189 nM
IC50 ([3]; Table B1): 43 nM
IC50 (TYK2; Table B1): 766 nM
ALK % of inhibition at a concentration of 500 nM or 1 mM [4, 9]: 31%

O=C(Nc1nc(C(=O)O)cs1)Nc1ccc2cc1CCc1cccc(c1)Nc1ncc(Cl)c(n1)N2 [Example B250, 2-[({[6-Chloro-2,4,8,22-tetraazatetracyclo[14.3.1.1(3,7).1(9,13)]docosa-1(20),3(22),4,6,9(21),10,12,16,18-nonaen-12-yl]amino}carbonyl)amino]-1,3-thiazole-4-carboxylic acid trifluoroacetate]
IC50 ([1]; Table B1): 28 nM
IC50 ([2]; Table B1): 6.3 nM
IC50 ([3]; Table B1): 28 nM
IC50 (TYK2; Table B1): 5.5 nM
ALK % of inhibition at a concentration of 500 nM or 1 mM [4, 9]: 66%

Clc1cnc2nc1Nc1ccc(OC3CCCC3)c(c1)CCc1cccc(c1)N2 [Example A14, 6-Chloro-12-(cyclopentyloxy)-2,4,8,22-tetraazatetracyclo[14.3.1.1(3,7).1(9,13)]docosa-1(20),3(22),4,6,9(21),10,12,16,18-nonaene trifluoroacetate]
IC50 [1, 5]: 74 nM
IC50 [2, 6]: 144 nM
IC50 [3, 7]: 42 nM
IC50 (TYK2): 116 nM
ALK % of inhibition at a concentration of 500 nM or 1 mM [4, 8]: 0%

O=C(CC1CCN(c2ccnc(F)c2)CC1)Nc1ccc2cc1CCc1cncc(c1)Nc1ncc(Cl)c(n1)N2 [Example A244, N-[6-Chloro-2,4,8,18,22-pentaazatetracyclo[14.3.1.1(3,7).1(9,13)]docosa-1(20),3(22),4,6,9(21),10,12,16,18-nonaen-12-yl]-2-[1-(2-fluoropyridin-4-yl)piperidin-4-yl]acetamide tris(trifluoroacetate)]
IC50 [1, 5]: 30 nM
IC50 [2, 6]: > 400 nM
IC50 [3, 7]: 171 nM
IC50 (TYK2): 170 nM
ALK % of inhibition at a concentration of 500 nM or 1 mM [4, 8]: 66%

O=S(=O)(Nc1ccc2cc1CCc1cccc(c1)Nc1ncc(Cl)c(n1)N2)c1cccc2cccnc12 [Example B160, N-[6-Chloro-2,4,8,22-tetraazatetracyclo[14.3.1.1(3,7).1(9,13)]docosa-1(20), 3(22),4,6,9(21),10,12,16,18-nonaen-12-yl]quinoline-8-sulfonamide bis(trifluoroacetate)]
IC50 ([1]; Table B1): 12 nM
IC50 ([2]; Table B1): 102 nM
IC50 ([3]; Table B1): 6.4 nM
IC50 (TYK2; Table B1): 2.4 nM
ALK % of inhibition at a concentration of 500 nM or 1 mM [4, 9]: 4.6%
